Tests used:
IDO1 [1] = biological target: T1, IDO1 (Homo sapiens, UniProt P14902); experiment: IDO1 cellular activity using Hela cells (IFN-gamma induced IDO expression, kynurenine absorbance at 480 nm); assay type: cell-based; details: IDO induced with interferon gamma 50 ng/ml, 24 h compound incubation, read-out: Inhibitory Activity (IC50)
Procedure: Hela cells were seeded at a density of 20000 cells/well in 100 μl of a culture medium (EMEM supplemented with 10% FBS, penicillin 100 U/ml, and streptomycin 100 μg/ml) in a tissue culture-treated 96 well plate. The cells were cultured in a 5% carbon dioxide incubator for 24 hours, treated with recombinant human interferon gamma at the concentration of 50 ng/ml, and then cultured for 48 hours in a 5% carbon dioxide incubator to induce IDO expression.
The activities were measured using IDO1 cellular activity-measuring substrate (IDO1 cellular activity quickDetect supplements catalog: #62000-2, BPS Bioscience). Specifically, an assay medium was prepared by diluting IDO1 assay medium substrate 1 and IDO1 assay medium supplement 2 in a culture medium at a ratio of 1:100, respectively. The test compounds were diluted to the predetermined concentrations in the fresh assay medium. After removing the culture medium using a multi-pipet, 200 μl of each assay medium containing the test material was added into the respective well, followed by incubating in a 5% carbon dioxide incubator for 24 hours. The next day, 140 μl of culture medium from each well was transferred to a new 96-well plate. 10 μl of 6.1N trichloroacetic acid was added into each well, which was then cultured in a 50° C. incubator for 30 minutes. The plate was centrifuged at 2500 rpm for 10 minutes to settle any sediment. A detection reagent solution was prepared by diluting the detection reagent (component D kit, catalog: #62000-2, BPS Bioscience) 50-fold in acetic acid. 100 μl of the supernatant taken from the centrifuged plate was transferred to a new transparent 96-well plate and then 100 μl of the detection reagent solution was added thereto. After reacting at room temperature for 10 minutes, absorbance was measured at 480 nm wavelength. For analysis of the results, the absorbance (At) of the well containing Hela cells in which IDO protein expression was induced without treatment of an inhibitor was 100%; and the absorbance (Ab) of the well containing Hela cells in which IDO protein expression was not induced was 0. The % absorbance was calculated according to the following equation: % Absorbance=(A−Ab)/(At−Ab), A=absorbance of the well treated with the test compound.
The results obtained by calculating the 50% inhibitory concentration (C50) of each compound, from the absorbance values obtained as described above, are shown in Table 1 below.

IDO1 [2] = biological target: T1, IDO1; experiment: IDO1 cellular activity using HEK293 cells transfected with IDO1 expression vector; assay type: cell-based; set-up: host or cells: HEK293 cells, transient transfection with Lipofectamine 2000; details: 24 h compound incubation, read-out: Inhibitory Activity (IC50)
Procedure: HEK293 cells were seeded at a density of 30000 cells/well in 100 μl of a culture medium (DMEM supplemented with 10% FBS, penicillin 100 U/ml, and streptomycin 100 μg/ml) in a tissue culture-treated 96 well plate. The cells were cultured in a 5% carbon dioxide incubator for 24 hours, transfected with the IDO1 expression vector (component A in IDO1 cell-based assay kit, catalog #72031, BPS Bioscience) using Lipofectamine 2000 (Life Technologies, #11668027), and then cultured for 24 hours in a 5% carbon dioxide incubator to express the IDO protein.
The activities were measured using a IDO1 cell-based assay kit (catalog #72031, BPS Bioscience). Specifically, an assay medium was prepared by diluting IDO1 assay medium substrate 1 and IDO1 assay medium supplement 2 in a culture medium at a ratio of 1:100, respectively. The test compounds were diluted to the predetermined concentrations in the fresh assay medium. After removing the culture medium using a multi-pipet, 200 μl of each assay medium containing the test material was added into respective well, followed by incubating in a 5% carbon dioxide incubator for 24 hours. The next day, 140 μl of culture medium from each well was transferred to a new 96-well plate. 10 μl of 6.1N trichloroacetic acid was added into each well, which was then cultured in a 50° C. incubator for 30 minutes. The plate was centrifuged at 2500 rpm for 10 minutes to settle any sediment. A detection reagent solution was prepared by diluting the detection reagent (component D in IDO1 cell-based assay kit, catalog #72031 BPS Bioscience) 50-fold in acetic acid. 100 μl of the supernatant taken from the centrifuged plate was transferred to a new transparent 96-well plate and then 100 μl of the detection reagent solution was added thereto. After reacting at room temperature for 10 minutes, absorbance was measured at 480 nm wavelength. For analysis of the results, the absorbance (At) of the well containing HEK293 cells in which IDO protein was expressed without treatment of an inhibitor was 100%; and the absorbance (Ab) of the well containing HEK293 cells in which IDO protein was not expressed was 0. The % absorbance was calculated according to the following equation: % Absorbance=(A−Ab)/(At−Ab), A=absorbance of the well treated with the test compound.

T1 sequence (P14902 whole entry): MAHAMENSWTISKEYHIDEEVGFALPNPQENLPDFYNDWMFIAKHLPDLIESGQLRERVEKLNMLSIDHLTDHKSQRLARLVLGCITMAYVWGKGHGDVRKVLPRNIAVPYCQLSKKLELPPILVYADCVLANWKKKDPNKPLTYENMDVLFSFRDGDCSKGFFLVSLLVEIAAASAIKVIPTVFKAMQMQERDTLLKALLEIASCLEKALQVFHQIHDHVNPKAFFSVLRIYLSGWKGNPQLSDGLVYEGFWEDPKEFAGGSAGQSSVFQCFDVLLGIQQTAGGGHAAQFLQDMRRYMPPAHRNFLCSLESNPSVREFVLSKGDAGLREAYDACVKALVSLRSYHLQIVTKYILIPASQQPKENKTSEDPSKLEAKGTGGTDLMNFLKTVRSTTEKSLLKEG

SMILES	IC50 (IDO1 [1]) [µM]	IC50 (IDO1 [2]) [µM]
C[C@H](C[C@H]1CC[C@@H](c2ccnc3ccc(F)cc32)CC1)Nc1nc2ccccc2o1 [Example 24, N-((R)-1-((cis)-4-(6-fluoroquinolin-4-yl)cyclohexyl)propan-2-yl)benzo[d]oxazol-2-amine]	0.017	
C[C@H](C[C@H]1CC[C@@H](c2ccnc3ccc(F)cc32)CC1)Nc1nc2c(F)cc(F)cc2s1 [Example 17, 4,6-difluoro-N-((R)-1-((cis)-4-(6-fluoroquinolin-4-yl)cyclohexyl)propan-2-yl)benzo[d]thiazol-2-amine]	0.019	0.0206
C[C@H](C[C@H]1CC[C@@H](c2ccnc3ccc(F)cc32)CC1)Nc1ncnc2cc(C#N)ccc12 [Example 1, 4-(((R)-1-((cis)-4-(6-fluoroquinolin-4-yl)cyclohexyl)propan-2-yl)amino)quinazolin-7-carbonitrile]	0.016	
C[C@H](C[C@H]1CC[C@@H](c2ccnc3ccc(F)cc32)CC1)Nc1cc(=O)oc2cc(Cl)ccc12 [Example 8, 7-chloro-4-(((R)-1-((cis)-4-(6-fluoroquinolin-4-yl)cyclohexyl)propan-2-yl)amino)-2H-chromen-2-one]	0.0059	
C[C@H](C[C@H]1CC[C@@H](c2ccnc3ccc(F)cc32)CC1)Nc1ncnc2cc(Cl)ccc12 [Example 3, 7-chloro-N-((R)-1-((cis)-4-(6-fluoroquinolin-4-yl)cyclohexyl)propan-2-yl)quinazolin-4-amine]	0.014	
COc1ccc2nc(N[C@H](C)C[C@H]3CC[C@@H](c4ccnc5ccc(F)cc54)CC3)sc2c1 [Example 14, N-((R)-1-((cis)-4-(6-fluoroquinolin-4-yl)cyclohexyl)propan-2-yl)-6-methoxybenzo[d]thiazol-2-amine]	0.001	
C[C@H](C[C@H]1CC[C@@H](c2ccnc3ccc(F)cc32)CC1)Nc1cc(=O)oc2cc(Br)ccc12 [Example 9, 7-bromo-4-(((R)-1-((cis)-4-(6-fluoroquinolin-4-yl)cyclohexyl)propan-2-yl)amino)-2H-chromen-2-one]	0.018	
C[C@H](C[C@H]1CC[C@H](c2ccnc3ccc(F)cc32)CC1)Nc1ncnc2cc(Cl)ccc12 [Example 4, 7-chloro-N-((R)-1-((trans)-4-(6-fluoroquinolin-4-yl)cyclohexyl)propan-2-yl)quinazolin-4-amine]	0.011	
C[C@H](C[C@H]1CC[C@H](c2ccnc3ccc(F)cc32)CC1)Nc1cc(=O)oc2ccc(Br)cc12 [Example 7, 6-bromo-4-(((R)-1-((trans)-4-(6-fluoroquinolin-4-yl)cyclohexyl)propan-2-yl)amino)-2H-chromen-2-one]	0.019	
COc1ccc2nc(N[C@@H](C[C@H]3CC[C@@H](c4ccnc5ccc(F)cc54)CC3)C3CC3)sc2c1 [Example 16, N-((S)-1-cyclopropyl-2-((cis)-4-(6-fluoroquinolin-4-yl)cyclohexyl)ethyl)-6-methoxybenzo[d]thiazol-2-amine]	0.004	
C[C@H](C[C@H]1CC[C@H](c2ccnc3ccc(F)cc32)CC1)Nc1cc(=O)oc2cc(Cl)ccc12 [Example 6, 7-chloro-4-(((R)-1-((trans)-4-(6-fluoroquinolin-4-yl)cyclohexyl)propan-2-yl)amino)-2H-chromen-2-one]	0.017	
CC[C@H](C[C@H]1CC[C@@H](c2ccnc3ccc(F)cc32)CC1)Nc1nc2ccc(OC)cc2s1 [Example 15, N-((R)-1-((cis)-4-(6-fluoroquinolin-4-yl)cyclohexyl)butan-2-yl)-6-methoxybenzo[d]thiazol-2-amine]	0.0051	
C[C@H](C[C@H]1CC[C@@H](c2ccnc3ccc(F)cc32)CC1)Nc1nc(Cl)nc2cc(Cl)ccc12 [Example 40, 2,7-dichloro-N-((R)-1-((cis)-4-(6-fluoroquinolin-4-yl)cyclohexyl)propan-2-yl)quinazolin-4-amine]		0.0219
C[C@H](C[C@H]1CC[C@H](c2ccnc3ccc(F)cc32)CC1)Nc1nc(Cl)nc2cc(C(F)(F)F)ccc12 [Example 58, 2-chloro-N-((R)-1-((trans)-4-(6-fluoroquinolin-4-yl)cyclohexyl)propan-2-yl)-7-(trifluoromethyl)quinazolin-4-amine]		0.0168
C[C@H](C[C@H]1CC[C@H](c2ccnc3ccc(F)cc32)CC1)Nc1nc(Cl)nc2cc(Br)ccc12 [Example 56, 7-bromo-2-chloro-N-((R)-1-((trans)-4-(6-fluoroquinolin-4-yl)cyclohexyl)propan-2-yl)quinazolin-4-amine]		0.0193
C[C@H](C[C@H]1CC[C@@H](c2ccnc3ccc(F)cc32)CC1)Nc1nc(Cl)nc2cc(C(F)(F)F)ccc12 [Example 66, 2-chloro-N-((R)-1-((cis)-4-(6-fluoroquinolin-4-yl)cyclohexyl)propan-2-yl)-7-(trifluoromethyl)quinazolin-4-amine]		0.0308
C[C@H](C[C@H]1CC[C@@H](c2ccnc3ccc(F)cc32)CC1)Nc1nc(Cl)nc2cc(C#N)ccc12 [Example 63, 2-chloro-4-(((R)-1-((cis)-4-(6-fluoroquinolin-4-yl)cyclohexyl)propan-2-yl)amino)quinazolin-7-carbonitrile]		0.0275
C[C@H](C[C@H]1CC[C@@H](c2ccnc3ccc(F)cc32)CC1)Nc1nc2ccc(OCCF)cc2o1 [Example 45, 6-(2-fluoroethoxy)-N-((R)-1-((cis)-4-(6-fluoroquinolin-4-yl)cyclohexyl)propan-2-yl)benzo[d]oxazol-2-amine]		0.0055
C[C@H](C[C@H]1CC[C@@H](c2ccnc3ccc(F)cc32)CC1)Nc1nc(Cl)nc2ccccc12 [Example 38, 2-chloro-N-((R)-1-((cis)-4-(6-fluoroquinolin-4-yl)cyclohexyl)propan-2-yl)quinazolin-4-amine]		0.0237
C[C@H](C[C@H]1CC[C@@H](c2ccnc3ccc(F)cc32)CC1)Nc1nncc2cc(Cl)ccc12 [Example 39, 6-chloro-N-((R)-1-((cis)-4-(6-fluoroquinolin-4-yl)cyclohexyl)propan-2-yl)phthalazin-1-amine]		0.0097
COc1ccc2nc(N[C@H](C)C[C@H]3CC[C@@H](c4ccnc5ccc(F)cc54)CC3)oc2c1F [Example 42, 7-fluoro-N-((R)-1-((cis)-4-(6-fluoroquinolin-4-yl)cyclohexyl)propan-2-yl)-6-methoxybenzo[d]oxazol-2-amine]		0.0066
COc1cccc2c(N[C@H](C)C[C@H]3CC[C@@H](c4ccnc5ccc(F)cc54)CC3)nc(Cl)nc12 [Example 70, 2-chloro-N-((R)-1-((cis)-4-(6-fluoroquinolin-4-yl)cyclohexyl)propan-2-yl)-8-methoxyquinazolin-4-amine]		0.114
C[C@H](C[C@H]1CC[C@@H](c2ccnc3ccc(F)cc32)CC1)Nc1nc2ncccc2s1 [Example 21, N-((R)-1-((cis)-4-(6-fluoroquinolin-4-yl)cyclohexyl)propan-2-yl)thiazolo[4,5-b]pyridin-2-amine]	0.018	

Source: patent publication US20240174636A1, “NOVEL INDOLEAMINE 2,3-DIOXYGENASE INHIBITORS, PROCESSES FOR THE PREPARATION THEREOF AND PHARMACEUTICAL COMPOSITIONS COMPRISING THE SAME” (YUHAN CORPORATION, priority 2021, published 2024)
